Assay results published in patent publication US12465616B2, “Methods and compositions for disrupting biofilm utilizing chitosan-derivative compounds” (SYNEDGEN, INC., priority 2009, dated 2025).

Tested on: MRSA MW-2
Assay: Prophylactic activity on pigskin
Format: cell-based, Staphylococcus aureus
Details: treatment dried 1-hour, about 10^3 CFU for 1-hour; chitosan-arginine 60 μg/cm^2 in 70% ethanol (21 kDa, 29% functionalized, FIG. 24); hydrogen peroxide 3%

| Compound | prophylactic activity, qualitative CFU recovered from treated skin surface |
| --- | --- |
| CCO [70% ethanol, ethanol] | no prophylactic activity |
| OO [hydrogen peroxide] | no prophylactic activity |
